Literature values, collected in patent US5360794A, “Disubstituted and deoxy disubstituted derivatives of α-D-mannofuranosides and β-L-gulofuranosides having anti-inflammatory and anti-proliferative activity” (Medicarb Inc., priority 1992, dated 1994).
Counter-ions that a name gives are not always drawn.

System: rheumatoid arthritis
Conditions: late Phase III clinical trials; cited from earlier work

## CN(C)CCCO[C@@H]1[C@H]2OC(C)(C)O[C@H]2O[C@@H]1[C@H](O)CO [Amiprilose HCl, 1,2-O-isopropylidene-3-O-3'-(N', N'-dimethylaminopropyl)-α-D-glucofuranose]
  clinical utility in rheumatoid arthritis: demonstrated utility in managing the signs and symptoms of rheumatoid arthritis
